The record followed here is ChEMBL document CHEMBL1127123, “Justicidin E: A new leukotriene biosynthesis inhibitor” (Bioorg Med Chem Lett, 1993).

The first experiment deals with T1, Polyunsaturated fatty acid 5-lipoxygenase (Homo sapiens, UniProt P09917).
T1 sequence (P09917 whole entry): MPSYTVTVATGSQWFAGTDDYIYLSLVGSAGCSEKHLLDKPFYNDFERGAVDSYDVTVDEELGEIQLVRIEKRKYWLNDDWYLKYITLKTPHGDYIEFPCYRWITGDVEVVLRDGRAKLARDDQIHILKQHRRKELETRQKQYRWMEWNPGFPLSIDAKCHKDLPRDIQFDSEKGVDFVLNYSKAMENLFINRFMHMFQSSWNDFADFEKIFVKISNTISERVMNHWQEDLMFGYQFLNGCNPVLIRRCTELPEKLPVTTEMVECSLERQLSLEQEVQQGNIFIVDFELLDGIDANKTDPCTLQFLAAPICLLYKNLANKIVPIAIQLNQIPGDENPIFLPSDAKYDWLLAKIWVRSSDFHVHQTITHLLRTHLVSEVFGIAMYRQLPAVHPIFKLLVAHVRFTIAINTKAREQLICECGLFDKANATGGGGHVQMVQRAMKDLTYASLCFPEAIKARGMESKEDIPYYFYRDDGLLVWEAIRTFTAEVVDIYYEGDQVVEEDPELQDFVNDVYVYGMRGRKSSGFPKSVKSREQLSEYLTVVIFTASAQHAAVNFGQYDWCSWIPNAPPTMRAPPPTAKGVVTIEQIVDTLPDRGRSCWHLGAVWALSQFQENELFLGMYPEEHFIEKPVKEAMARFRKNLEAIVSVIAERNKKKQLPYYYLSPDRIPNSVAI
The experiment can be described thus: In vitro inhibition of LTB4 biosynthesis by human leukocytes. The experiment is classed as functional.
Consider `O=C1OCc2c1cc1cc(OCc3ccc(-c4ccccc4)cn3)ccc1c2-c1ccccc1`, for which half-maximal inhibition (IC50) was put at 22 nM.
Same read-out and setting: under `O=C1OCc2c1cc1cc(OCc3ccccc3)ccc1c2-c1ccccc1` stands 100 nM; under `O=C1OCc2c1cc1cc3c(cc1c2-c1ccccc1)OCO3`, 160 nM; under `O=C1OCc2cc3cc4c(cc3c(-c3ccc5c(c3)OCO5)c21)OCO4` [TAIWANIN C], 250 nM.
Still for that read-out and setting: under `O=C1OCc2c1cc1ccccc1c2-c1ccncc1` stands > 4000 nM; under `O=C1OCc2c1cc1cc3c(cc1c2-c1ccc2c(c1)OCO2)OCO3`, 70 nM; under `COc1ccc(-c2c3c(cc4cc5c(cc24)OCO5)C(=O)OC3)cc1OC`, > 5000 nM.
The same measure, in the same setting: the result for `O=C1NCc2c1cc1cc3c(cc1c2-c1ccc2c(c1)OCO2)OCO3` reads 4200 nM; that for `O=C1OCc2c1cc1sccc1c2-c1ccccc1`, 450 nM; that for `c1cc2c(cc1C1c3cocc3Cc3cc4c(cc31)OCO4)OCO2` (stereo unspecified), 420 nM.
On to `COc1ccc2c(-c3ccccc3)c3c(cc2c1)C(=O)OC3`, for which the IC50 – broadly, the concentration at which inhibition is half-maximal – worked out at 180 nM.
In turn, `O=C1OCc2c1cc1cc(OCc3ccc4ccccc4n3)ccc1c2-c1ccccc1` returned an IC50 of 88 nM.
On the same count and under the same terms, the result for `COc1cc2cc3c(c(-c4ccc5c(c4)OCO5)c2cc1OC)COC3=O` [RETROJUSTICIDIN B] reads 760 nM.
Still for that read-out and setting: the result for `COc1ccc2cc3c(c(-c4ccccc4)c2c1)COC3=O` reads 670 nM.
In turn, `O=C1OC(=O)c2c1cc1cc3c(cc1c2-c1ccc2c(c1)OCO2)OCO3` registered a half-inhibitory concentration (IC50) of 660 nM.
On the same count and under the same terms, under `COc1ccc(-c2c3c(cc4ccccc24)C(=O)OC3)cc1` stands 1400 nM; under `c1cc2c(cc1-c1c3c(cc4cc5c(cc14)OCO5)COC3)OCO2`, 230 nM.
On the same count and under the same terms, the result for `COc1cccc(-c2c3c(cc4ccccc24)C(=O)OC3)c1` reads 42 nM; that for `OCc1cc2cc3c(cc2c(-c2ccc4c(c2)OCO4)c1CO)OCO3`, 2200 nM.
The same measure, in the same setting: the result for `O=C1OCc2c1cc1ccccc1c2-c1ccc2c(c1)OCO2` reads 380 nM; that for `Cc1cc2cc3c(cc2c(-c2ccc4c(c2)OCO4)c1C)OCO3`, 250 nM; that for `O=C1OCc2c1cc1ccccc1c2-c1ccccc1`, 250 nM.
Take `O=C1OCc2c1cc1ccncc1c2-c1ccccc1`: half-maximal inhibition (IC50) was put at 3800 nM.

The next experiment has as its target T1, Polyunsaturated fatty acid 5-lipoxygenase. The experiment can be described thus: In vitro inhibition of human recombinant 5-lipoxygenase enzyme.
Regarding `O=C1OCc2c1cc1cc3c(cc1c2-c1ccc2c(c1)OCO2)OCO3`, the IC50 was determined as 500 nM.

The next experiment has the same target. The experiment can be described thus: In vitro inhibition of human recombinant lipoxygenase enzyme; No inhibition.
For `O=C1OCc2c1cc1cc(OCc3ccc(-c4ccccc4)cn3)ccc1c2-c1ccccc1`, the IC50 entry is “Not Active”.

A further experiment shares this target. The experiment can be described thus: In vitro inhibition of human recombinant lipoxygenase enzyme.
Consider `O=C1OCc2c1cc1cc(OCc3ccccc3)ccc1c2-c1ccccc1`, for which the IC50 is 3000 nM.
